Laboratory results reported in ChEMBL document CHEMBL2331486, “Identification of diaryl 5-amino-1,2,4-oxadiazoles as tubulin inhibitors: the special case of 3-(2-fluorophenyl)-5-(4-methoxyphenyl)amino-1,2,4-oxadiazole” (Bioorg Med Chem Lett, 2013).
Activity calls are given as the source filed them. The calls are words filed in the database; no cut-off is given here.

Key:
[1] = target: T1, Tubulin (Homo sapiens) (UniProt P68371+Q9H4B7+P0DPH7+P68366+Q13509+Q71U36+P04350+Q3ZCM7+P07437+P68363+Q9BQE3+Q6PEY2+Q13885+Q9BVA1+Q9BUF5); conditions: at 5 µM
Description: Displacement of [3H]colchicine from tubulin (unknown origin) at 5 uM after 10 mins

[2] = Growth inhibition of human NCI60 cells; assay type: functional
[3] = target: Tubulin; assay: Inhibition of tubulin (unknown origin) assembly after 20 mins by turbidimetric analysis; assay type: protein-complex assay, Homo sapiens
[4] = target: T1, Tubulin (Homo sapiens); conditions: at 1 µM
Description: Displacement of [3H]colchicine from tubulin (unknown origin) at 1 uM after 10 mins

[5] = Growth inhibition of human KBV1a cells; assay type: functional; conditions: pooled result: one value given for 5 cell lines, strains, targets or settings
[6] = test system: MDA-MB-231; assay: Cytotoxicity against human MDA-MB-231 cells; assay type: functional
[7] = Cytotoxicity against human Hs 578T cells; assay type: functional
[8] = test system: HOP-92; assay: Cytotoxicity against human HOP92 cells; assay type: functional
[9] = test system: DU-145; assay: Cytotoxicity against human DU145 cells; assay type: functional
[10] = test system: OVCAR-4; assay: Cytotoxicity against human OVCAR4 cells; assay type: functional
[11] = test system: SN12C; assay: Cytotoxicity against human SN12C cells; assay type: functional
[12] = test system: UACC-257; assay: Cytotoxicity against human UACC257 cells; assay type: functional
[13] = test system: SF-268; assay: Cytotoxicity against human SF268 cells; assay type: functional
[14] = test system: MDA-MB-468; assay: Cytotoxicity against human MDA-MB-468 cells; assay type: functional
[15] = test system: PC-3; assay: Cytotoxicity against human PC3 cells; assay type: functional
[16] = test system: T47D; assay: Cytotoxicity against human T47D cells; assay type: functional
[17] = test system: HT-29; assay: Cytotoxicity against human HT-29 cells; assay type: functional
[18] = test system: IGROV-1; assay: Cytotoxicity against human IGROV1 cells; assay type: functional
[19] = test system: K562; assay: Cytotoxicity against human K562 cells; assay type: functional
[20] = test system: SNB-19; assay: Cytotoxicity against human SNB19 cells; assay type: functional
[21] = test system: COLO 205; assay: Cytotoxicity against human COLO205 cells; assay type: functional
[22] = Cytotoxicity against human EKVX cells; assay type: functional
[23] = test system: UO-31; assay: Cytotoxicity against human UO31 cells; assay type: functional
[24] = test system: SK-MEL-5; assay: Cytotoxicity against human SK-MEL-5 cells; assay type: functional
[25] = test system: SK-MEL-28; assay: Cytotoxicity against human SK-MEL-28 cells; assay type: functional
[26] = test system: SK-OV-3; assay: Cytotoxicity against human SKOV3 cells; assay type: functional
[27] = test system: SF-539; assay: Cytotoxicity against human SF539 cells; assay type: functional
[28] = test system: NCI-H322M; assay: Cytotoxicity against human NCI-H322M cells; assay type: functional
[29] = test system: NCI-H460; assay: Cytotoxicity against human NCI-H460 cells; assay type: functional
[30] = test system: ACHN; assay: Cytotoxicity against human ACHN cells; assay type: functional
[31] = test system: CCRF-CEM; assay: Cytotoxicity against human CCRF-CEM cells; assay type: functional
[32] = test system: OVCAR-8; assay: Cytotoxicity against human OVCAR8 cells; assay type: functional
[33] = test system: OVCAR-5; assay: Cytotoxicity against human OVCAR5 cells; assay type: functional
[34] = test system: RXF 393; assay: Cytotoxicity against human RXF393 cells; assay type: functional
[35] = test system: Malme-3M; assay: Cytotoxicity against human MALME-3M cells; assay type: functional
[36] = test system: TK-10; assay: Cytotoxicity against human TK10 cells; assay type: functional
[37] = test system: MDA-MB-435; assay: Cytotoxicity against human MDA-MB-435 cells; assay type: functional
[38] = test system: SW-620; assay: Cytotoxicity against human SW620 cells; assay type: functional
[39] = test system: UACC-62; assay: Cytotoxicity against human UACC62 cells; assay type: functional
[40] = test system: SNB-75; assay: Cytotoxicity against human SNB75 cells; assay type: functional
[41] = test system: SF-295; assay: Cytotoxicity against human SF295 cells; assay type: functional
[42] = test system: U-251; assay: Cytotoxicity against human U251 cells; assay type: functional
[43] = test system: CAKI-1; assay: Cytotoxicity against human Caki1 cells; assay type: functional
[44] = test system: SK-MEL-2; assay: Cytotoxicity against human SK-MEL-2 cells; assay type: functional
[45] = test system: OVCAR-3; assay: Cytotoxicity against human OVCAR3 cells; assay type: functional
[46] = test system: RPMI-8226; assay: Cytotoxicity against human RPMI8226 cells; assay type: functional
[47] = test system: NCI-H522; assay: Cytotoxicity against human NCI-H522 cells; assay type: functional
[48] = test system: KM12; assay: Cytotoxicity against human KM12 cells; assay type: functional
[49] = test system: MCF7; assay: Cytotoxicity against human MCF7 cells; assay type: functional
[50] = test system: A549; assay: Cytotoxicity against human A549 cells; assay type: functional
[51] = test system: HOP-62; assay: Cytotoxicity against human HOP62 cells; assay type: functional
[52] = test system: HCT-15; assay: Cytotoxicity against human HCT15 cells; assay type: functional
[53] = test system: MOLT-4; assay: Cytotoxicity against human MOLT4 cells; assay type: functional
[54] = test system: HL-60(TB); assay: Cytotoxicity against human HL-60(TB) cells; assay type: functional
[55] = test system: NCI-H226; assay: Cytotoxicity against human NCI-H226 cells; assay type: functional
[56] = test system: A498; assay: Cytotoxicity against human A498 cells; assay type: functional
[57] = test system: HCT-116; assay: Growth inhibition of human HCT116 cells; assay type: functional
[58] = test system: DU-145; assay: Growth inhibition of human DU145 cells; assay type: functional
[59] = test system: PC-3; assay: Growth inhibition of human PC3 cells; assay type: functional
[60] = test system: PANC-1; assay: Growth inhibition of human PANC1 cells; assay type: functional
[61] = test system: MDA-MB-231; assay: Growth inhibition of human MDA-MB-231 cells; assay type: functional

## CCc1ccc(Nc2nc(-c3cc(OC)ccc3OC)no2)cc1
[1]
  inhibition: 65%
[2]
  GI50: 575 nM
[3]
  IC50: 1800 nM
[4]
  inhibition: 36%

## COc1cccc(-c2noc(Nc3ccc4c(c3)OCO4)n2)c1
[1]
  inhibition: 76%
[2]
  GI50: 1230 nM
[3]
  IC50: 2200 nM
[4]
  inhibition: 40%

## CCOc1ccc(Nc2nc(-c3cccc(OC)c3OC)no2)cc1
[1]
  inhibition: 56%
[3]
  IC50: 1800 nM
[4]
  inhibition: 20%

## CCc1ccc(Nc2nc(-c3cccc(OC)c3)no2)cc1
[1]
  inhibition: 81%
[3]
  IC50: 1600 nM
[4]
  inhibition: 40%

## Cc1ccc(Nc2nc(-c3ccccc3F)no2)cc1
[1]
  inhibition: 85%
[2]
  GI50: 603 nM
[3]
  IC50: 1600 nM
[4]
  inhibition: 57%

## CCOc1ccc(Nc2nc(-c3ccccc3)no2)cc1
[1]
  inhibition: 82%
[3]
  IC50: 1200 nM
[4]
  inhibition: 49%

## CCc1ccc(Nc2nc(-c3ccccc3F)no2)cc1
[1]
  inhibition: 73%
[3]
  IC50: 2700 nM
[4]
  inhibition: 41%

## Cc1ccc(Nc2nc(-c3ccccc3F)no2)cc1F
[1]
  inhibition: 81%
[2]
  GI50: 851 nM
[3]
  IC50: 1600 nM
[4]
  inhibition: 52%

## CCOc1ccc(Nc2nc(-c3ccccc3F)no2)cc1
[1]
  inhibition: 76%
[3]
  IC50: 1700 nM
[4]
  inhibition: 42%

## COc1ccc(OC)c(Nc2nc(-c3cccc(OC)c3OC)no2)c1
[1]
  inhibition: inactive
[4]
  inhibition: inactive

## COc1ccc(OC)c(-c2noc(Nc3ccc(C)c(F)c3)n2)c1
[1]
  inhibition: 53%
[3]
  IC50: 3500 nM
[4]
  inhibition: inactive

## COc1ccc(-n2cnnc2-c2cc(OC)c(OC)c(OC)c2)cc1
[5]
  GI50: 464 nM

## COc1ccc(OC)c(-c2noc(Nc3ccc4c(c3)OCCO4)n2)c1
[1]
  inhibition: 50%
[3]
  IC50: 3500 nM
[4]
  inhibition: 23%

## COc1ccc(/C=C\c2cc(OC)c(OC)c(OC)c2)cc1O [COMBRETASTATIN A4]
[2]
  GI50: 14.8 nM

## COc1ccc(Nc2nc(-c3ccccc3F)no2)cc1
[6]
  GI50: 676 nM
[7]
  GI50: 389 nM
[8]
  GI50: 3800 nM
[9]
  GI50: 141 nM
[10]
  GI50: 776 nM
[11]
  GI50: 240 nM
[12]
  GI50: 14100 nM
[13]
  GI50: 501 nM
[14]
  GI50: 1070 nM
[15]
  GI50: 447 nM
[16]
  GI50: 15100 nM
[17]
  GI50: 34.7 nM
[18]
  GI50: 389 nM
[1]
  inhibition: 91%
[19]
  GI50: 30.9 nM
[2]
  GI50: 204 nM
[20]
  GI50: 87.1 nM
[21]
  GI50: 126 nM
[22]
  GI50: 1510 nM
[23]
  GI50: 339 nM
[24]
  GI50: 151 nM
[25]
  GI50: 339 nM
[26]
  GI50: 204 nM
[27]
  GI50: 107 nM
[28]
  GI50: 501 nM
[29]
  GI50: 61.7 nM
[3]
  IC50: 1100 nM
[30]
  GI50: 490 nM
[31]
  GI50: 138 nM
[32]
  GI50: 209 nM
[33]
  GI50: 724 nM
[34]
  GI50: 155 nM
[35]
  GI50: 58.9 nM
[36]
  GI50: 832 nM
[37]
  GI50: 19.9 nM
[38]
  GI50: 47.9 nM
[39]
  GI50: 53.7 nM
[40]
  GI50: 141 nM
[4]
  inhibition: 68%
[41]
  GI50: 61.7 nM
[42]
  GI50: 60.3 nM
[43]
  GI50: 64.6 nM
[44]
  GI50: 39.8 nM
[45]
  GI50: 38 nM
[46]
  GI50: 372 nM
[47]
  GI50: 19.9 nM
[48]
  GI50: 112 nM
[49]
  GI50: 263 nM
[50]
  GI50: 91.2 nM
[51]
  GI50: 135 nM
[52]
  GI50: 85.1 nM
[53]
  GI50: 91.2 nM
[54]
  GI50: 25.7 nM
[55]
  GI50: 2190 nM
[56]
  GI50: 229 nM

## COc1ccc(Nc2nc(-c3cccc(OC)c3)no2)cc1
[57]
  GI50: 9.77 nM
[1]
  inhibition: 90%
[3]
  IC50: 1900 nM
[58]
  GI50: 9.77 nM
[59]
  GI50: 9.77 nM
[4]
  inhibition: 58%
[60]
  GI50: 9.77 nM
[61]
  GI50: 9.77 nM

## Cc1ccc(Nc2nc(-c3ccccc3)no2)cc1
[1]
  inhibition: 88%
[3]
  IC50: 1400 nM
[4]
  inhibition: 61%

## CCOC(=O)c1cccc(Nc2nc(-c3ccc(OC)cc3)no2)c1
[1]
  inhibition: inactive
[4]
  inhibition: inactive

## Fc1ccccc1Nc1nc(-c2ccccc2)no1
[1]
  inhibition: inactive
[4]
  inhibition: inactive

## CCOc1ccc(Nc2nc(-c3cccc(OC)c3)no2)cc1
[1]
  inhibition: 78%
[2]
  GI50: 851 nM
[3]
  IC50: 1600 nM
[4]
  inhibition: 37%

## COc1ccc(Nc2nc(-c3cccc(OC)c3OC)no2)cc1
[1]
  inhibition: 68%
[2]
  GI50: 245 nM
[3]
  IC50: 2600 nM
[4]
  inhibition: 31%

## COc1cccc(-c2noc(Nc3ccc(OC)c(Cl)c3)n2)c1
[1]
  inhibition: 73%
[2]
  GI50: 562 nM
[3]
  IC50: 2300 nM
[4]
  inhibition: 36%

## COc1cccc(-c2noc(Nc3ccc(C)cc3)n2)c1OC
[1]
  inhibition: 52%
[2]
  GI50: 2630 nM
[3]
  IC50: 3600 nM
[4]
  inhibition: 24%

## COc1ccc(Nc2nc(-c3ccccc3)no2)cc1Cl
[1]
  inhibition: 80%
[3]
  IC50: 1700 nM
[4]
  inhibition: 52%

## COc1cccc(-c2noc(Nc3ccc4c(c3)OCCO4)n2)c1
[1]
  inhibition: 76%
[3]
  IC50: 1900 nM
[4]
  inhibition: 38%

## COc1ccc(-n2cnnc2-c2cc(OC)c(OC)c(OC)c2)cc1F
[5]
  GI50: 556 nM

## COc1ccc(OC)c(-c2noc(Nc3ccc4c(c3)OCO4)n2)c1
[1]
  inhibition: 52%
[2]
  GI50: 6460 nM
[3]
  IC50: 2500 nM
[4]
  inhibition: 21%

## COc1cccc(-c2noc(Nc3ccc(C)cc3)n2)c1
[1]
  inhibition: 85%
[3]
  IC50: 1500 nM
[4]
  inhibition: 56%
